Test results reported in patent US9073916B2, “Prodrug forms of kinase inhibitors and their use in therapy” (AUCKLAND UNISERVICES LIMITED, priority 2009, dated 2015).
Several values for one entry are separate records, joined by “and”; a condition that tells them apart may be missing. Identical values can stand only once. Like-named read-outs stand apart in the source and are kept apart here.

Legend:
SW620 cells = test: Cellular growth inhibition (sulforhodamine B); type: cell-based, Human; details: Table 3; for IC50: Homo sapiens, SW-620
Erk1/2 = details: EGF-stimulated A431 cells
A431 cells = test: Cellular growth inhibition (sulforhodamine B); details: for IC50: Homo sapiens
SKBR3 cells = test: Cellular growth inhibition (sulforhodamine B); type: cell-based, Human; details: Table 3; for IC50: Homo sapiens, SK-BR-3
Protocol: Human A431, BT474, SKBR3, SKOV3, SW620, H1975 and HT29 carcinoma cells in log phase exponential growth in alpha minimal essential media (αMEM) containing 5% fetal bovine serum (FBS), were harvested by trypsinisation (1× trypsin/EDTA, Gibco Brl), counted, and seeded into 96 well plates (Nunc) at cell densities ranging from 800-1500 cells/well. Half of the cell samples were seeded into plates that were pre-equilibrated and held in an anoxic environment (90% N2, 5% H2, 5% CO2, 37° Q Anaerobic chamber, Coy Laboratory Products). […] At the end of this period the anoxic plates were recovered from the anaerobic camber and held under normoxia in a standard CO2 incubator (37° C.) for 20 hours. All plates were washed free of compound and cells were allowed to proliferate for a further 4 days in αMEM containing 5% FBS+antibiotics. Cells were fixed in trichloroacteic acid (30 min), washed and stained with sulforhodamine B (SRB, 60 min) prior to washing in acidified water. SRB was solubilised and absorption read at 450 nm to calculate cell densities. Inhibition of proliferation was calculated relative to untreated control wells.

[1] = Plasma and A431 tumour pharmacokinetics of compounds 11 and 20; details: NIHIII, mouse, 75 umol/kg
Protocol: A small piece (˜100 mg) of tissue was placed in biopulveriser well (previously cooled in liquid nitrogen) and reduced to fine powder with a 2-3 strong blows to the stainless steel pestle. The frozen powder was collected in pre-weighed microcentrifuge tube (kept on dry ice). […] The microcentrifuge tubes were spun at 13,000 rpm for 10 min to precipitate the cell debris and proteins. […] The analytes were eluted using a gradient of 0.01% formic acid in acetonitrile (80%)-water (20%) mixture and 0.01% formic acid in water (100%) on Zorbax SB 018, rapid resolution HT 3.0×50 mm, 1.8 micron (Agilent) HPLC column with a flow rate of 0.6 ml/min.

A431 xenografts = test: In vivo efficacy in A431 xenografts; details: A431 xenografts
Protocol: (§1) Specific pathogen-free homozygous female CD-1 nude mice (Charles River Laboratories, Wilmington, Mass.) were inoculated subcutaneously with a single cell suspension of A431 cells (5×10^6 cells/100 pt; right flank). When A431 tumour xenografts were established (typically 6-10 days) mice were randomized to treatment groups. All compounds were prepared in lactate buffer (pH4). Mice were dosed by intraperitoneal injection (0.01-0.03 ml/g) using the stated schedules and dose levels. Tumour size and body weights were measured at regular intervals. Tumour volume was calculated as π (length×width^2)/6. […] Differences in RTV^4 were tested for statistical difference by Mann Whitney U test using SigmaStat v3.5.

erbB4 = erbB4 (Homo sapiens, UniProt Q15303); test: Isolated enzyme inhibition (Invitrogen Z′-LYTE kinase assay); type: biochemical; details: 10 μM ATP, duplicate
Sequence of erbB4 (Q15303 26-1308): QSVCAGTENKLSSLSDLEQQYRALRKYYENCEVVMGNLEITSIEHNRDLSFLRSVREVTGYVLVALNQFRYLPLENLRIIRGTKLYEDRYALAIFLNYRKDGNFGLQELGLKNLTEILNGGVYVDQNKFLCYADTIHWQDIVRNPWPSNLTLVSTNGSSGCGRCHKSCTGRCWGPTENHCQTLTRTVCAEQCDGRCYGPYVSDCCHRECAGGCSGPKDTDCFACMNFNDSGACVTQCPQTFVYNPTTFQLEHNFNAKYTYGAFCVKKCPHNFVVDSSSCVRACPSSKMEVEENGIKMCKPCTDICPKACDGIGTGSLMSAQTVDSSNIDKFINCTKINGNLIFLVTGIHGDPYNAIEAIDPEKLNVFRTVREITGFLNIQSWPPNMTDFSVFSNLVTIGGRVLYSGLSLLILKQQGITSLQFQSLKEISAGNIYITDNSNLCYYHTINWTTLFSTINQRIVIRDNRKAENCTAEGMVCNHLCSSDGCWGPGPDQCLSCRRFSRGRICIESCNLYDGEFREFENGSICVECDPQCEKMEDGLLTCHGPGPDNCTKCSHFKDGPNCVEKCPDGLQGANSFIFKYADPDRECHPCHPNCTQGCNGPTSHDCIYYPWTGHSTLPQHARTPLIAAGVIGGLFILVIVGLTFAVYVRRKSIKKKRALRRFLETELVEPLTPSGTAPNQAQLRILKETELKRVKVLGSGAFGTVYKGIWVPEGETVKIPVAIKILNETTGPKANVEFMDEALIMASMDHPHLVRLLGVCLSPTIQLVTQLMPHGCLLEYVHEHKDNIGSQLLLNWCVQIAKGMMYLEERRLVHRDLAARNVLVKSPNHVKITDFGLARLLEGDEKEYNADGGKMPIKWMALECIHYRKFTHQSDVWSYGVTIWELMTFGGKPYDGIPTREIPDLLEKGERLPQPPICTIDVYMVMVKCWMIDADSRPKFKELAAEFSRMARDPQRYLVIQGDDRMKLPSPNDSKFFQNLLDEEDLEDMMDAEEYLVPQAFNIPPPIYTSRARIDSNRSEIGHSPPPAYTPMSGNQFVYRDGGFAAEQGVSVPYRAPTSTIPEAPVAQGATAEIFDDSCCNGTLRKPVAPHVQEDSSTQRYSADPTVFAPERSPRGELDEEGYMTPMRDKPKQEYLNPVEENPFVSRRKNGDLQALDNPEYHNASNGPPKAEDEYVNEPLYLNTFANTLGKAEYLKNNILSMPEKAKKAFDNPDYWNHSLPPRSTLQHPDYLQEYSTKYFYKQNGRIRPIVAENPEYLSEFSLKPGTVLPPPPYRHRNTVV
Protocol: (§2) The compounds of Table 1 were tested for their ability to inhibit erbB1, erbB1^T790M, erbB2 and erbB4 in an isolated enzyme assay. This assay utilises synthetic FRET-capable peptide substrates. Phosphorylation of these substrates protects them from cleavage by a development reagent, leaving their FRET-capabilities intact. […] As a further consideration, for compounds capable of irreversible inhibition of an enzyme, the IC50 reflects both reversible and irreversible binding to the enzyme.

erbB2 [2] = biological target: T1, erbB2 (Homo sapiens, UniProt P04626); test: as above; type: biochemical; details: 10 μM ATP, duplicate
T1 sequence (P04626 23-1255): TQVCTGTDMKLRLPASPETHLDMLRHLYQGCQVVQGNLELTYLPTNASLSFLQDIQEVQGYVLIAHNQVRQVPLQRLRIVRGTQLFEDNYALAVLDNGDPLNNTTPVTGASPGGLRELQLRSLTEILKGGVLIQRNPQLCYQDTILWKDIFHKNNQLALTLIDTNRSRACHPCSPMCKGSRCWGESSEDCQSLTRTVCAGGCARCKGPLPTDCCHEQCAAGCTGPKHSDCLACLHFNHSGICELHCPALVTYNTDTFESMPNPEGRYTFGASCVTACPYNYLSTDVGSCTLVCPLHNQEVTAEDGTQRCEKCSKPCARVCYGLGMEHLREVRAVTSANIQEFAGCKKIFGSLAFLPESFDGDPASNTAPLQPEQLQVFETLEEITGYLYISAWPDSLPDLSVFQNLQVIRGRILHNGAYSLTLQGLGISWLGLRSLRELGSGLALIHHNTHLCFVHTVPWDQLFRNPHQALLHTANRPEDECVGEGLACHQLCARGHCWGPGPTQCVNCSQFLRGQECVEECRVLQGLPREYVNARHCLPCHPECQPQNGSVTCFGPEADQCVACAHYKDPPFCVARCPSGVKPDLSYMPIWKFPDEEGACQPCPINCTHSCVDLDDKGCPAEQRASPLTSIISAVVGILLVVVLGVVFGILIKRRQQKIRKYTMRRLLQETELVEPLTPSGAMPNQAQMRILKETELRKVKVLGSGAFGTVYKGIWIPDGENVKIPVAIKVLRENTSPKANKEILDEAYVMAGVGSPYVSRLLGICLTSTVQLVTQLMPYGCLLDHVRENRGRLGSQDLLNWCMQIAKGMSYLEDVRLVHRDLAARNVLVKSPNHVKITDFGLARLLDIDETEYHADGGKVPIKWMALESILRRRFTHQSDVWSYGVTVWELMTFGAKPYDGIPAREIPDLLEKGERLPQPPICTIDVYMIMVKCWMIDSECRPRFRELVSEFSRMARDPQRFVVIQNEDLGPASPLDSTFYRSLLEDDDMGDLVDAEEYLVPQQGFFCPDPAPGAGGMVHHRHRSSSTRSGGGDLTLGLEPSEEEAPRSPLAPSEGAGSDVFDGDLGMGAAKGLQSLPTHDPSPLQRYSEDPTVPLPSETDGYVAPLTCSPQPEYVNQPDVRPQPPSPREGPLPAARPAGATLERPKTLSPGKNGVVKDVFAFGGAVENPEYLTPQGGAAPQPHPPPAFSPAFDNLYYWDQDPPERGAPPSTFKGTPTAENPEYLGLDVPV
Protocol: as §2

erbB1 [3] = biological target: T2, erbB1 (Homo sapiens, UniProt P00533); test: Cellular erbB1 inhibition: irreversibility wash-out assay in A431 cells
T2 sequence (P00533 25-1210): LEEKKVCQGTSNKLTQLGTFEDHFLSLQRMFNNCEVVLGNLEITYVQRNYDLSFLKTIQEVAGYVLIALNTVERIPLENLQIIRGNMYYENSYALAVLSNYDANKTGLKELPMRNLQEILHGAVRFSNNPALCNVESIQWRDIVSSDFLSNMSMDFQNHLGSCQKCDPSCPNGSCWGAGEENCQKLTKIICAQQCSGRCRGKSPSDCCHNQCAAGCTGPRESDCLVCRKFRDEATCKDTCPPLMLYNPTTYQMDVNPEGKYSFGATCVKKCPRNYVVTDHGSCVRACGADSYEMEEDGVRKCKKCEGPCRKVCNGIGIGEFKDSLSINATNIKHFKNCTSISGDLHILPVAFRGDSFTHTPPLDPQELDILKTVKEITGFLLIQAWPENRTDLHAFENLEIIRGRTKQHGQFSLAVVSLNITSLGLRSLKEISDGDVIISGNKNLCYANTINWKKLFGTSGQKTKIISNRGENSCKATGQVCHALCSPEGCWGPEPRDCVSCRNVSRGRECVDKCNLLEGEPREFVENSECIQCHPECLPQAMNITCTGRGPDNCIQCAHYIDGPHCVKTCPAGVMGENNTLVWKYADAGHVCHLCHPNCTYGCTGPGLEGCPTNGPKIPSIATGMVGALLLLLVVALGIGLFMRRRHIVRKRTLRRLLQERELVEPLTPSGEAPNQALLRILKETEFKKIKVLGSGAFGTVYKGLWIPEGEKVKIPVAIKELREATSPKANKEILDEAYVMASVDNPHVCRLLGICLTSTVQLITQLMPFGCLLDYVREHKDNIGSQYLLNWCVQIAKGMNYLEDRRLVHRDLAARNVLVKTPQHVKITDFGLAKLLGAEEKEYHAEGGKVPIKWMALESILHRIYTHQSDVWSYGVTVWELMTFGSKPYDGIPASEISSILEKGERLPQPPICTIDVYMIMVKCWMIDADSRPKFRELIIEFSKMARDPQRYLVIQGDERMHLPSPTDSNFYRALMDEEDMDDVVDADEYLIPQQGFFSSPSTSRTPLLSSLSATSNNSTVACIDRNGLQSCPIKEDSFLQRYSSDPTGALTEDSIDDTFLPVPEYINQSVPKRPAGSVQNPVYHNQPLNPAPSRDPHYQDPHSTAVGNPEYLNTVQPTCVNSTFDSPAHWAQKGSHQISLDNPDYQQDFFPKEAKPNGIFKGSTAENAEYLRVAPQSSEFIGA

erbB1 [4] = biological target: T2, erbB1; test: Inhibition of erbB1 autophosphorylation in EGF-stimulated intact A431 cells (Western blot)
SKOV3 xenografts = test: In vivo efficacy in SKOV3 xenografts; parameters: species or system mice
Protocol: as §1, with “NIH-III” for “CD-1”, “SKOV3” for “A431”, “(1×10^7” for “(5×10^6”, “μL;” for “pt;”, “50-65” for “6-10”
as §1, with “NIH-III” for “CD-1”, “SKOV3” for “A431”, “(1×10^7” for “(5×10^6”, “μL;” for “pt;”, “50-65” for “6-10”, “Compounds 42 and 161” for “All compounds”

in vivo [5] = details: mouse, plasma, ip, 42 umol/kg
in vivo [6] = details: female, CD-1 nude, mouse, ip
erbB1 [7] = biological target: T2, erbB1; test: Cellular erbB1 inhibition under oxic and hypoxic conditions in A431 cells; type: cell-based; details: 1 μM, 4 hour exposure oxic or hypoxic, washed, EGF stimulated
Protocol: Human A431 epidermoid carcinoma cells were seeded at 400,000 cells/well in a 6 well plate in alpha minimal essential media (αMEM) containing 10% fetal bovine serum, 10 mM D-Glucose and 0.2 mM 2′-deoxycytidine. A431 cells were allowed to attach for 90 minutes under oxic or anoxic conditions, then exposed to test compounds at a concentration of 1 uM for a further 4 hours under oxic or anoxic conditions. The cells were then washed free of test compounds three times using serum free media and then returned to the incubator under oxic conditions overnight. The cells were then stimulated with 100 ng/mL EGF for 15 minutes before the medium was aspirated and the cells were washed with ice-cold PBS.

erbB1^T790M = erbB1^T790M (Homo sapiens, UniProt P00533, T790M); test: Isolated enzyme inhibition (Invitrogen Z′-LYTE kinase assay); type: biochemical; details: 10 μM ATP, duplicate
Sequence of erbB1^T790M (P00533 25-1210 T790M): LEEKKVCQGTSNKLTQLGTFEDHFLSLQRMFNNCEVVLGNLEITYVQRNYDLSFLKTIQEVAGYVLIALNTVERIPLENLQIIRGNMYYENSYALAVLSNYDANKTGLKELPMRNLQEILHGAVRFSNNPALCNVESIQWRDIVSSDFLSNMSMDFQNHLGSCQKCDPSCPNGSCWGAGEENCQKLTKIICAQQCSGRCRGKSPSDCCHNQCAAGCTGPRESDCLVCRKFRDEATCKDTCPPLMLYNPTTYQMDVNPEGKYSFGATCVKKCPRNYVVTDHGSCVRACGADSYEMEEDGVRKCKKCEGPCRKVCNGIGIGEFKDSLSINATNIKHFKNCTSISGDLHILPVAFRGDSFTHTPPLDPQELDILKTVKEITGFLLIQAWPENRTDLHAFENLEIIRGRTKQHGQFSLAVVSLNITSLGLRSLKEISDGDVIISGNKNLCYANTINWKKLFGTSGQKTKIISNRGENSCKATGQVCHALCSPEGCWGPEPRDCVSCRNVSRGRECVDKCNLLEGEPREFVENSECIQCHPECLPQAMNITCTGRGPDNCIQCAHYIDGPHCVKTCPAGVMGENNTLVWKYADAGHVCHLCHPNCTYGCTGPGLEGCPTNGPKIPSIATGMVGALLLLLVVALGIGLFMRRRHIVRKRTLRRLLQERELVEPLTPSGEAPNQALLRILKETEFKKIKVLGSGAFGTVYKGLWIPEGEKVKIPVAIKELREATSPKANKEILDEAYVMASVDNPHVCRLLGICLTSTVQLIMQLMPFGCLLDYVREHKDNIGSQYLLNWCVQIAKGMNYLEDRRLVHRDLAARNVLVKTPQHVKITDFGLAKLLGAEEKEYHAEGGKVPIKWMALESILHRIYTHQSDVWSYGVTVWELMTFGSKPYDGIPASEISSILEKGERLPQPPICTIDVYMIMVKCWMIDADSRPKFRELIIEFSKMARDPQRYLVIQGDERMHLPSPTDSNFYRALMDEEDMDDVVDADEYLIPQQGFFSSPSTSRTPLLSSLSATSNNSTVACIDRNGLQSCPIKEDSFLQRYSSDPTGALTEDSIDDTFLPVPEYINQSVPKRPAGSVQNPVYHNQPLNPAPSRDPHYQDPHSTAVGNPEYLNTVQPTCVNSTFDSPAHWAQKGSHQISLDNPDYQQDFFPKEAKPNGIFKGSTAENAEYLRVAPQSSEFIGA

erbB1 [8] = biological target: T2, erbB1; test: as above; type: biochemical; details: 10 μM ATP, duplicate
[9] = Steady state radiolytic reduction by the CO2.− radical with HPLC-MS; type: physicochemical
[10] = Pulse radiolysis (E(1) and fragmentation rate); type: physicochemical; details: determined against methylviologen
H1975 cells = test: Cellular growth inhibition (sulforhodamine B); type: cell-based, Human; details: Table 9; for IC50: Homo sapiens, NCI-H1975
SKOV3 cells = test: Cellular growth inhibition (sulforhodamine B); type: cell-based, Human; details: Table 9; for IC50: Homo sapiens, SK-OV-3
Protocol: Human A431, H1975 and SKOV3 carcinoma cells in log phase exponential growth in alpha minimal essential media (αMEM) containing 5% fetal bovine serum (FBS), were harvested by trypsinisation (1× trypsin/EDTA, Gibco Brl), counted, and seeded into 96 well plates (Nunc) at cell densities ranging from 800-1500 cells/well. Half of the cell samples were seeded into plates that were pre-equilibrated and held in an anoxic environment (90% N2, 5% H2, 5% CO2, 37° C.; Anaerobic chamber, Coy Laboratory Products). […] At the end of this period the anoxic plates were recovered from the anaerobic camber and held under normoxia in a standard CO2 incubator (37° C.) for 20 hours. All plates were washed free of compound and cells were allowed to proliferate for a further 4 days in αMEM containing 5% FBS+antibiotics. Cells were fixed in trichloroacteic acid (30 min), washed and stained with sulforhodamine B (SRB, 60 min) prior to washing in acidified water. SRB was solubilised and absorption read at 450 nm to calculate cell densities. Inhibition of proliferation was calculated relative to untreated control wells.

H1975 xenografts = test: In vivo efficacy in H1975 xenografts; parameters: species or system mice; details: H1975 xenografts, equitoxic dose 133 (42) and 42.2 (161) μmol/kg/dose, q3dx4, IP
Protocol: Specific pathogen-free homozygous female NIH-III nude mice (Charles River Laboratories, Wilmington, Mass.) were inoculated subcutaneously with a single cell suspension of H1975 cells (5×10^6 cells/100 μL; right flank). When H1975 tumour xenografts were established (typically 8-12 days) mice were randomized to treatment groups. All compounds were prepared in lactate buffer (pH4). Mice were dosed by intraperitoneal injection (0.01-0.03 ml/g) using the stated schedules and dose levels. For growth delay experiments mice were randomized to treatment and tumor volume [π(length×width^2)/6] and body weight were measured daily following treatment. […] Differences in RTV^4 were tested for statistical difference by Mann Whitney U test using SigmaStat v3.5.

[11] = Plasma and A431 tumour pharmacokinetics of compounds 42 and 161
erbB2 [12] = biological target: T1, erbB2; test: Inhibition of basal phospho-erbB2 in SKOV3 cells (Western blot); type: cell-based; parameters: endogenous in cells; host or cells: SKOV3 human ovarian carcinoma cells; details: SKOV3 cells; read-out: cellular erbB2 IC50
Excerpt: Values are plotted using SigmaPlot 10.

[13] = 24 hour exposure entirely oxic, read-out: Cellular Growth Inhibition IC50 SW620 Oxic
[14] = first 4 hours anoxic, read-out: Cellular Growth Inhibition IC50 SW620 Anoxic
[15] = A-431, 24 h, read-out: Cellular Growth Inhibition IC50 A431 Oxic
[16] = A-431, read-out: Cellular Growth Inhibition IC50 A431 Anoxic
[17] = 24 hour exposure entirely oxic, read-out: Cellular Growth Inhibition IC50 SKBR3 Oxic
[18] = first 4 hours anoxic, read-out: Cellular Growth Inhibition IC50 SKBR3 Anoxic
[19] = HPLC-MS at 0.95 reducing equivalents

CN(C)C/C=C/C(=O)Nc1ccc2ncnc(Nc3cccc(Br)c3)c2c1 [Compound 11, (2E)-N-[4-(3-bromoanilino)-6-quinazolinyl]-4-(dimethylamino)-2-butenamide, reference compound]
IC50 (SW620 cells; [13]): 3430 nM
IC50 (SW620 cells; [14]): 2890 nM
SW620 HCR (SW620 cells): 1.2 fold
inhibition of cellular Erk1/2 phosphorylation (Erk1/2): potent inhibitor
IC50 (A431 cells; [15]): 40 nM
IC50 (A431 cells; [16]): 40 nM
IC50 (SKBR3 cells; [17]): 81 nM
IC50 (SKBR3 cells; [18]): 141 nM
SKBR3 HCR (SKBR3 cells): 0.6 fold
half-life ([1]; A431 tumour, intraperitoneal): 9 h
AUC ([1]; plasma, ip): 18 µM·h
deaths (A431 xenografts; q4dx6, 63% of single dose MTD): 2/12
IC50 (erbB4): 2.7 nM
IC50 (erbB2 [2]): 8 nM and 7.7 nM
erbB1 autophosphorylation, cells not washed free of drug (erbB1 [3]): completely inhibited
inhibition of cellular HER1 phosphorylation (erbB1 [4]; EGF-stimulated A431 cells): potent inhibitor
deaths (SKOV3 xenografts; q3dx6, 133 (20) and 56 (11) umol/kg/dose): 1/7
AUC(0-t) (in vivo [5]): 12 µM·h
MTD (in vivo [6]): 100 µmol/kg

Cn1cc([N+](=O)[O-])nc1C[N+](C)(C)C/C=C/C(=O)Nc1ccc2ncnc(Nc3cccc(Br)c3)c2c1 [Compound 21, (2E)-4-{[4-(3-bromoanilino)-6-quinazolinyl]amino}-N,N-dimethyl-N-[(1-methyl-4-nitro-1H-imidazol-2-yl)methyl]-4-oxo-2-buten-1-ammonium bromide]
hypoxia-selective inhibition of p-erbB1 (erbB1 [7]): no apparent hypoxia-selective inhibition
IC50 (SW620 cells; [13]): 423000 nM
IC50 (SW620 cells; [14]): 365000 nM
SW620 Deact. (SW620 cells): 123 fold
SW620 HCR (SW620 cells): 1.2 fold
IC50 (A431 cells; [15]): 11000 nM
IC50 (A431 cells; [16]): 13700 nM
A431 Deact. (fold reduction in oxic growth inhibition relative to parent kinase inhibitor) (A431 cells; Table 3): 277 fold
A431 HCR (Hypoxic Cytotoxicity Ratio) (A431 cells; Table 3): 1.3 fold
IC50 (erbB1^T790M): 531 nM
IC50 (erbB1 [8]): 0.53 nM
Effector release/Prodrug loss ([9]; 0.95 reducing equivalents): 0.30
Detection of MNA (methyl nitroaromatic) ([9]; HPLC-MS): No
% Loss of prodrug [9, 19]: 33%
% Release of effector [9, 19]: 10%
release of effector following 1-electron reduction ([9]; steady state radiolysis, HPLC-MS): not observed
IC50 (SKBR3 cells; [17]): 26900 nM
IC50 (SKBR3 cells; [18]): 30000 nM
SKBR3 Deact. (SKBR3 cells): 332 fold
SKBR3 HCR (SKBR3 cells): 0.9 fold
tumour growth inhibition (TGI) (A431 xenografts; q4dx3 at MTD, IP in lactate buffer): 10%
E (1)/V (one-electron reduction potential) [10]: −0.468 V
IC50 (erbB4): 76 nM
IC50 (erbB2 [2]): 128 nM
IC50 (erbB1 [4]): 1190 nM
Deact. (fold reduction in cellular erbB1 inhibition relative to the parent kinase inhibitor) (erbB1 [4]; Table 2, A431 cells): 130 fold

CN(C)C/C=C/C(=O)Nc1cc2c(Nc3ccc(F)c(Br)c3)ncnc2cn1 [Compound 161, (2E)-N-[4-(3-bromo-4-fluoroanilino)pyrido[3,4-d]pyrimidin-6-yl]-4-(dimethylamino)-2-butenamide]
IC50 (H1975 cells; 24 hour exposure oxic, read-out: Cellular Growth Inhibition IC50 H1975 Oxic): 1260 nM
IC50 (H1975 cells; first 4 hours anoxic, read-out: Cellular Growth Inhibition IC50 H1975 Anoxic): 1400 nM
H1975 HCR (H1975 cells): 0.9 fold
IC50 (SKOV3 cells; 24 hour exposure oxic, read-out: Cellular Growth Inhibition IC50 SKOV3 Oxic): 840 nM
IC50 (SKOV3 cells; first 4 hours anoxic, read-out: Cellular Growth Inhibition IC50 SKOV3 Anoxic): 1310 nM
SKOV3 HCR (SKOV3 cells): 0.8 fold
tumour growth inhibition (TGI) (H1975 xenografts): 100%
IC50 (A431 cells; A-431, 4 h, read-out: Cellular Growth Inhibition IC50 A431 Anoxic): 28 nM
IC50 (A431 cells; [15]): 30 nM
A431 HCR (A431 cells; Table 9): 1.6 fold
erbB1 autophosphorylation, cells not washed free of drug (erbB1 [3]; 1 μM, 1 hour exposure, then EGF stimulation): completely inhibited
IC50 (erbB1 [4]): 5 nM
deaths (SKOV3 xenografts; q3dx9, 100 (42) and 31.6 (161) μmol/kg/dose): 1/7
AUC ([11]; female, NIH-III, mouse, plasma, ip, 31.6 umol/kg): 8 µM·h
tumour AUC0-inf ([11]; inhibitor 161 dosed directly at 31.6 umol/kg ip, A431 tumour): 49 µmol·h/kg
IC50 (erbB2 [12]): 6 nM
